Experimental data reported in ChEMBL document CHEMBL1156466, “NHE1 inhibition by amiloride- and benzoylguanidine-type compounds. Inhibitor binding loci deduced from chimeras of NHE1 homologues with endogenous differences in inhibitor sensitivity” (J Biol Chem, 2007).
Calls of active or inactive are those of the source. No cut-off for these calls is given here.

What was measured:
AP1 [1] = assay: Inhibition of Pleuronectes americanus NHE1 C-terminal mutant containing TM7 domain of Amphiuma tridactylum expressed in chinese hamster AP1 cells assessed as intracellular pHi recovery by ammonium chloride prepulse protocol; format: cell-based
AP1 [2] = assay: Inhibition of Pleuronectes americanus NHE1 TM4 mutant containing TFFLF sequence of Amphiuma tridactylum expressed in chinese hamster AP1 cells assessed as intracellular pHi recovery by ammonium chloride prepulse protocol; format: cell-based
AP1 [3] = assay: Inhibition of Pleuronectes americanus NHE1 C-terminal mutant with replacement of residues C-terminal to 489 position with corresponding residues of Amphiuma tridactylum expressed in chinese hamster AP1 cells assessed as intracellular pHi recovery by ammonium chloride prepulse protocol; format: cell-based
[4] = biological target: T1, Sodium/hydrogen exchanger (Pseudopleuronectes americanus) (UniProt Q804I7); assay: Inhibition of osmotic cell shrinkage-induced NHE1 activity in Pleuronectes americanus RBC at 1 mM
T1 sequence (whole entry): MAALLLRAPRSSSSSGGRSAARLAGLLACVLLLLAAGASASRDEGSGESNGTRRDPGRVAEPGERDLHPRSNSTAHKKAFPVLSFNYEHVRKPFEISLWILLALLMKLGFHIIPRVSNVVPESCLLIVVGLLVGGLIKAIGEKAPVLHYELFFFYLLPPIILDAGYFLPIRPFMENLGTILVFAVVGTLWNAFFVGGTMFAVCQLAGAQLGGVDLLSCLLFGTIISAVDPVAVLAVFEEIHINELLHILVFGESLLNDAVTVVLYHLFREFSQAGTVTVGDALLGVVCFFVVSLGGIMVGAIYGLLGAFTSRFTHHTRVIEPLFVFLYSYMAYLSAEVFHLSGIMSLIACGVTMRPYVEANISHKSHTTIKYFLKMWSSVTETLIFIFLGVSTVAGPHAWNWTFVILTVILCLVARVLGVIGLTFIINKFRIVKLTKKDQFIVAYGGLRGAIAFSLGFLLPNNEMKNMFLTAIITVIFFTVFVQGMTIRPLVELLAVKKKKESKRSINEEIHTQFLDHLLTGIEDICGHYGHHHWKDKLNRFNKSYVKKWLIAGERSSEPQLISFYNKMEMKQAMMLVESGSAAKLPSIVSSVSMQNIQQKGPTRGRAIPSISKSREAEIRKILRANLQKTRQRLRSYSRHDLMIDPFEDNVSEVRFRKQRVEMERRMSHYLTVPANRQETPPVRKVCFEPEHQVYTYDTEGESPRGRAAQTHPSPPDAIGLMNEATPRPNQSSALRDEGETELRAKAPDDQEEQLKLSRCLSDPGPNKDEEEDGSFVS

[5] = (§1) Inhibition of Amphiuma tridactylum NHE1 mutant containing TM10-12 domain of Pleuronectes americanus expressed in chinese hamster AP1 cells assessed as intracellular pHi recovery by ammonium chloride prepulse protocol; format: cell-based
[6] = (§2) Inhibition of Pleuronectes americanus NHE1 mutant containing TM10-12 domain of Amphiuma tridactylum expressed in chinese hamster AP1 cells assessed as intracellular pHi recovery by ammonium chloride prepulse protocol; format: cell-based
[7] = (§3) Inhibition of Pleuronectes americanus NHE1 TM4 mutant containing VFFLF sequence of human expressed in chinese hamster AP1 cells assessed as intracellular pHi recovery by ammonium chloride prepulse protocol; format: cell-based
[8] = biological target: Sodium/hydrogen exchanger (Amphiuma tridactylum, UniProt Q9W6Q1); assay: (§4) Inhibition of Amphiuma tridactylum wild type NHE1 expressed in chinese hamster AP1 cells assessed as intracellular pHi recovery by ammonium chloride prepulse protocol; format: cell-based
Chain of Sodium/hydrogen exchanger (Q9W6Q1 whole entry, the tested form may be a part): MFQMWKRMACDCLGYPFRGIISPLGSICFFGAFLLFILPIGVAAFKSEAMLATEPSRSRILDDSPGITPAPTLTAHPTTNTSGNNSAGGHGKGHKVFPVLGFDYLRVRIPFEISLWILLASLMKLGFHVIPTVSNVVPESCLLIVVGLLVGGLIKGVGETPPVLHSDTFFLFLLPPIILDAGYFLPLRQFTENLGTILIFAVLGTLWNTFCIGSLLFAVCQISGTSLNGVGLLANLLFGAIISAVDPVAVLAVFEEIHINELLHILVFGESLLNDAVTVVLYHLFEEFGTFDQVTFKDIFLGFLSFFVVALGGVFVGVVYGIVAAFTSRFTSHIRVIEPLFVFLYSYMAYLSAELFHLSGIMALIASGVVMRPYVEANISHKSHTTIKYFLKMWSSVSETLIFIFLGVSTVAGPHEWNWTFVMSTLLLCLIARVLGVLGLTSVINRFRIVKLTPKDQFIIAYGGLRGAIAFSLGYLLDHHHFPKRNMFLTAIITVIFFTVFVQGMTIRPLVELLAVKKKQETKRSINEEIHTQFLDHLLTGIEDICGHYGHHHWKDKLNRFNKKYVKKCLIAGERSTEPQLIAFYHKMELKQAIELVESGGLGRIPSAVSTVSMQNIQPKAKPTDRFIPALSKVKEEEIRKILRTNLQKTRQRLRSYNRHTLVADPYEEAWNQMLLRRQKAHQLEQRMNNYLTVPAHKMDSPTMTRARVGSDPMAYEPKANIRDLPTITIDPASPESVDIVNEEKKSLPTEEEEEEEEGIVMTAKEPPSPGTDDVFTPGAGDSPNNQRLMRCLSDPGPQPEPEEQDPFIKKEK

[9] = (§5) Inhibition of Pleuronectes americanus NHE1 C-terminal mutant containing TM10 domain of Amphiuma tridactylum expressed in chinese hamster AP1 cells assessed as intracellular pHi recovery by ammonium chloride prepulse protocol; format: cell-based
[10] = biological target: Sodium/hydrogen exchanger 1 (Homo sapiens, UniProt P19634); assay: Inhibition of human wild type NHE1 expressed in chinese hamster AP1 cells assessed as intracellular pHi recovery by ammonium chloride prepulse protocol; format: cell-based
Chain of Sodium/hydrogen exchanger 1 (P19634 whole entry): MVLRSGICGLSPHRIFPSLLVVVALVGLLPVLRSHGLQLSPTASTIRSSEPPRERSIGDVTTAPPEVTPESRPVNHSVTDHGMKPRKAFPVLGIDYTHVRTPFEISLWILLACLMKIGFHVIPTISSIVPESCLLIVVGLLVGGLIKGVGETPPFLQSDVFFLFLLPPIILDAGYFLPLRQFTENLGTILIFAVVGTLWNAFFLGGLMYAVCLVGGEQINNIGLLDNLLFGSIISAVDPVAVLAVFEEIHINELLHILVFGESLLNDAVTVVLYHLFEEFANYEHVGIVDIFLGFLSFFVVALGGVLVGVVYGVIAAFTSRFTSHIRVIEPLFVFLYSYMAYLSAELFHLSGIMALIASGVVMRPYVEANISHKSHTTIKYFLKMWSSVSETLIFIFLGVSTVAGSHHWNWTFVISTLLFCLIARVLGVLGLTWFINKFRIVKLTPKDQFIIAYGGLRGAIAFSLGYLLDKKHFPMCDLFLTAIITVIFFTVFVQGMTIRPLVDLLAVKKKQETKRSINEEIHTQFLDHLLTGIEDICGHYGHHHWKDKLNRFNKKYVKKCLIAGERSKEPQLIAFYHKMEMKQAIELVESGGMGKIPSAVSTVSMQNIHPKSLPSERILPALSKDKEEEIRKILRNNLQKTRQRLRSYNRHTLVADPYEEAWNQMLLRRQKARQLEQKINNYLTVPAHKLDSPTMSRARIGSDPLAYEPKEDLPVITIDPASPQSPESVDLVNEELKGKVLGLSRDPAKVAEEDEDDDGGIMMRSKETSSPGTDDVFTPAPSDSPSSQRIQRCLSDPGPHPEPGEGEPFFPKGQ

[11] = biological target: T1, Sodium/hydrogen exchanger (Pseudopleuronectes americanus); assay: Inhibition of Pleuronectes americanus wild type NHE1 expressed in chinese hamster AP1 cells assessed as intracellular pHi recovery by ammonium chloride prepulse protocol; format: cell-based
AP1 [12] = assay: as §1; format: cell-based
AP1 [13] = assay: as §2; format: cell-based
AP1 [14] = assay: as §3; format: cell-based
[15] = biological target: Sodium/hydrogen exchanger (Amphiuma tridactylum) (UniProt Q9W6Q1); assay: as §4; format: cell-based
Chain of Sodium/hydrogen exchanger (Amphiuma tridactylum) (Q9W6Q1 as listed by the source): as the sequence (Q9W6Q1 whole entry, the tested form may be a part) above

AP1 [16] = assay: as §5; format: cell-based
[17] = biological target: Sodium/hydrogen exchanger (Amphiuma tridactylum) (UniProt Q9W6Q1); assay: Inhibition of osmotic cell shrinkage-induced NHE1 activity in Amphiuma tridactylum RBC
[18] = biological target: T1, Sodium/hydrogen exchanger (Pseudopleuronectes americanus); assay: Inhibition of osmotic cell shrinkage-induced NHE1 activity in Pleuronectes americanus RBC upto 100 uM
[19] = biological target: Sodium/hydrogen exchanger (Amphiuma tridactylum) (UniProt Q9W6Q1); assay: Inhibition of osmotic cell shrinkage-induced NHE1 activity in Amphiuma tridactylum RBC at 100 uM
[20] = biological target: T1, Sodium/hydrogen exchanger (Pseudopleuronectes americanus); assay: Inhibition of osmotic cell shrinkage-induced NHE1 activity in Pleuronectes americanus RBC at 20 uM

| Activity [10] | Activity [11] | Activity [15] | SMILES | Activity (AP1 [2]) | IC50 [5] [µM] | IC50 [6] [µM] | IC50 [7] [µM] | IC50 [8] [µM] | IC50 [9] [µM] | Activity (AP1 [12]) | Activity (AP1 [13]) | Activity (AP1 [14]) | Activity (AP1 [16]) | also measured |
| --- | --- | --- | --- | --- | --- | --- | --- | --- | --- | --- | --- | --- | --- | --- |
| – | – | – | N=C(N)NC(=O)c1nc(Cl)c(N)nc1N [AMILORIDE] | Active | 38 | 137 | 118 | 98 | 491 | – | – | – | – | Activity (AP1 [1]): Active; Activity (AP1 [3]): inactive; Activity [4]: inactive |
| Active | inactive | inactive | CC(C)c1ccc(C(=O)N=C(N)N)cc1S(C)(=O)=O | Active | – | – | – | – | – | Active | inactive | Active | inactive | – |
| – | – | – | CCN(c1nc(N)c(C(=O)NC(=N)N)nc1Cl)C(C)C [5-(N-ETHYL-N-ISOPROPYL)AMILORIDE] | – | 5.8 | 11 | 0.92 | 8.7 | 37 | – | – | – | – | IC50 [10]: 0.8 µM; Activity [17]: Active; Activity [18]: inactive |
| Active | inactive | inactive | CS(=O)(=O)c1cc(C(=O)N=C(N)N)ccc1N1CCCCC1 | Active | – | – | – | – | – | Active | inactive | Active | inactive | Activity [19]: inactive; Activity [20]: inactive |
